For 26 compounds, IC50 results are on record in patent US8372863B2, “Tetrahydro-1H-pyrrolo fused pyridones” (Merck Sharp & Dohme Corp., priority 2008, dated 2013).

The structures appear in SMILES notation. Structures can show the parent of a compound that is named as a salt.

PHD2, sequence (Q9GZT9 whole entry): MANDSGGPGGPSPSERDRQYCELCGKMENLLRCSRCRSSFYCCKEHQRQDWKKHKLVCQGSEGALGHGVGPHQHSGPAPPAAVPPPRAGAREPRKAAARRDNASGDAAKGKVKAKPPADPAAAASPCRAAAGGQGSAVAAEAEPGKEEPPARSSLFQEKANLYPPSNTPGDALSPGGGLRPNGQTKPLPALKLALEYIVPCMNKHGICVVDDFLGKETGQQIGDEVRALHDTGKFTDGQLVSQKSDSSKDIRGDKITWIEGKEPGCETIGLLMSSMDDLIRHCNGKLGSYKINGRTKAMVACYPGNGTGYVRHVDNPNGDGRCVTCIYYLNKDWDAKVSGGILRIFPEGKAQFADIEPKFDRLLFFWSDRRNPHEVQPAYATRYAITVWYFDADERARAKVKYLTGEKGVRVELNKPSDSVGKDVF

For the first experiment, the target named is PHD2 (Homo sapiens, UniProt Q9GZT9). Description: PHD2 / HIF-1α peptide hydroxylation assay with time resolved fluorescence readout (PHD2 binding activity). It counts as biochemical. To be noted: FLAG-tagged full length PHD2; 0.2 μM 2-oxoglutarate, 0.5 μM HIF-1α peptide; read-out: PHD2 Activity (PHD2 binding activity expressed as IC50). The protocol:
After a 30 min preincubation at room temperature, the enzymatic reactions were initiated by the addition of 4 μL of substrates (final concentrations of 0.2 μM 2-oxoglutarate and 0.5 μM HIF-1α peptide biotinyl-DLDLEMLAPYIPMDDDFQL). After 2 hr at room temperature, the reactions were terminated and signals were developed by the addition of a 25 μL quench/detection mix to a final concentration of 1 mM ortho-phenanthroline, 0.1 mM EDTA, 0.5 nM anti-(His)6 LANCE reagent (Perkin-Elmer Life Sciences), 100 nM AF647-labeled streptavidin (Invitrogen), and 2 μg/ml (His)6-VHL complex (S. Tan(2001) Protein Expr. Purif 21, 224-234). The ratio of time resolved fluorescence signals at 665 and 620 nm was determined, and percent inhibition was calculated relative to an uninhibited control sample run in parallel.
The term IC50 denotes the point on the concentration scale where inhibition reaches its midpoint. For `CC1c2c(c(O)c(C(=O)NCC(=O)O)c(=O)n2Cc2ccc(-c3ccccc3)cc2)CN1C(=O)c1cscn1` (single isomer, unassigned) [55 Enantiomer 1], the concentration for half-maximal inhibition (IC50) is less than 10 nM.

For the compound `CC1c2c(c(O)c(C(=O)NCC(=O)O)c(=O)n2Cc2ccc(-c3ccccc3)cc2)CN1C(=O)c1cscn1` (single isomer, unassigned) [55 Enantiomer 2], the IC50 is 10 to 100 nM.

For `C=CCCC(=O)N1Cc2c(O)c(C(=O)NCC(=O)O)c(=O)n(Cc3ccc(C(F)(F)F)cc3)c2C1` [Example 1, N-({4-hydroxy-2-oxo-6-pent-4-enoyl-1-[4-(trifluoromethyl)benzyl]-2,5,6,7-tetrahydro-1H-pyrrolo[3,4-b]pyridin-3-yl}carbonyl)glycine], the IC50 is less than 10 nM.

With `C=CCCC(=O)N1Cc2c(O)c(C(=O)NCC(=O)O)c(=O)n(Cc3ccc(-c4ccccc4)cc3)c2C1` [Example 2, N-{[1-(biphenyl-4-ylmethyl)-4-hydroxy-2-oxo-6-pent-4-enoyl-2,5,6,7-tetrahydro-1H-pyrrolo[3,4-b]pyridin-3-yl]carbonyl}glycine], the 50% inhibitory concentration (IC50) is less than 10 nM.

On to `C=CCCC(=O)N1Cc2c(O)c(C(=O)NCC(=O)O)c(=O)n(Cc3nc4ccccc4s3)c2C1` [Example 3, N-{[1-(1,3-benzothiazol-2-ylmethyl)-4-hydroxy-2-oxo-6-pent-4-enoyl-2,5,6,7-tetrahydro-1H-pyrrolo[3,4-b]pyridin-3-yl]carbonyl}glycine], for which the IC50 was less than 10 nM.

With `C=CCCC(=O)N1Cc2c(O)c(C(=O)NCC(=O)O)c(=O)n(Cc3cccc(Br)c3)c2C1` [Example 4, N-{[1-(3-bromobenzyl)-4-hydroxy-2-oxo-6-pent-4-enoyl-2,5,6,7-tetrahydro-1H-pyrrolo[3,4-b]pyridin-3-yl]carbonyl}glycine], the IC50 is less than 10 nM.

On to `C=CCCC(=O)N1Cc2c(O)c(C(=O)NCC(=O)O)c(=O)n(Cc3ccc(Br)cc3)c2C1C` (centres unmarked) [Example 5, N-{[1-(4-bromobenzyl)-4-hydroxy-7-methyl-2-oxo-6-pent-4-enoyl-2,5,6,7-tetrahydro-1H-pyrrolo[3,4-b]pyridin-3-yl]carbonyl}glycine], for which the IC50 is less than 10 nM.

As for `C=CCCC(=O)N1Cc2c(c(O)c(C(=O)NCC(=O)O)c(=O)n2Cc2ccc(Br)cc2)C1C` (centres unmarked) [Example 6, N-{[1-(4-bromobenzyl)-4-hydroxy-5-methyl-2-oxo-6-pent-4-enoyl-2,5,6,7-tetrahydro-1H-pyrrolo[3,4-b]pyridin-3-yl]carbonyl}glycine], the IC50 is less than 10 nM.

Consider `O=C(O)CNC(=O)c1c(O)c2c(n(Cc3ccc(C(F)(F)F)cc3)c1=O)CNC2` [Example 7, N-({4-hydroxy-2-oxo-1-[4-(trifluoromethyl)benzyl]-2,5,6,7-tetrahydro-1H-pyrrolo[3,4-b]pyridin-6-ium-3-yl}carbonyl)glycine trifluoroacetate], for which the IC50 was less than 10 nM.

Take `O=C(O)CNC(=O)c1c(O)c2c(n(Cc3ccc(C(F)(F)F)cc3)c1=O)CN(C(=O)c1cccc(Cl)c1)C2` [Example 8, N-({6-(3-chlorobenzoyl)-4-hydroxy-2-oxo-1-[4-(trifluoromethyl)benzyl]-2,5,6,7-tetrahydro-1H-pyrrolo[3,4-b]pyridin-3-yl}carbonyl)glycine]: the IC50 was less than 10 nM.

On to `CC(=O)N1Cc2c(O)c(C(=O)NCC(=O)O)c(=O)n(Cc3ccc(C(F)(F)F)cc3)c2C1` [Example 9, N-({6-acetyl-4-hydroxy-2-oxo-1-[4-(trifluoromethyl)benzyl]-2,5,6,7-tetrahydro-1H-pyrrolo[3,4-b]pyridin-3-yl}carbonyl)glycine], for which the IC50 was less than 10 nM.

As to `CS(=O)(=O)N1Cc2c(O)c(C(=O)NCC(=O)O)c(=O)n(Cc3ccc(C(F)(F)F)cc3)c2C1` [Example 10, N-({4-hydroxy-6-(methylsulfonyl)-2-oxo-1-[4-(trifluoromethyl)benzyl]-2,5,6,7-tetrahydro-1H-pyrrolo[3,4-b]pyridin-3-yl}carbonyl)glycine], the IC50 is less than 10 nM.

As to `O=C(O)CNC(=O)c1c(O)c2c(n(Cc3ccc(C(F)(F)F)cc3)c1=O)CN(C(=O)N1CCOCC1)C2` [Example 11, N-({4-hydroxy-6-(morpholin-4-ylcarbonyl)-2-oxo-1-[4-(trifluoromethyl)benzyl]-2,5,6,7-tetrahydro-1H-pyrrolo[3,4-b]pyridin-3-yl}carbonyl)glycine], the 50% inhibitory concentration (IC50) was less than 10 nM.

For the compound `CN(C)S(=O)(=O)N1Cc2c(O)c(C(=O)NCC(=O)O)c(=O)n(Cc3ccc(C(F)(F)F)cc3)c2C1` [Example 12, N-({6-[(dimethylamino)sulfonyl]-4-hydroxy-2-oxo-1-[4-(trifluoromethyl)benzyl]-2,5,6,7-tetrahydro-1H-pyrrolo[3,4-b]pyridin-3-yl}carbonyl)glycine], the IC50 is less than 10 nM.

For the compound `COCC(=O)N1Cc2c(O)c(C(=O)NCC(=O)O)c(=O)n(Cc3ccc(C(F)(F)F)cc3)c2C1` [Example 14, N-({4-hydroxy-6-(methoxyacetyl)-2-oxo-1-[4-(trifluoromethyl)benzyl]-2,5,6,7-tetrahydro-1H-pyrrolo[3,4-b]pyridin-3-yl}carbonyl)glycine], the IC50 was less than 10 nM.

Regarding `CC(C)(C)C(=O)N1Cc2c(O)c(C(=O)NCC(=O)O)c(=O)n(Cc3ccc(C(F)(F)F)cc3)c2C1` [Example 15, N-({6-(2,2-dimethylpropanoyl)-4-hydroxy-2-oxo-1-[4-(trifluoromethyl)benzyl]-2,5,6,7-tetrahydro-1H-pyrrolo[3,4-b]pyridin-3-yl}carbonyl)glycine], the IC50 is less than 10 nM.

Consider `CCOC(=O)N1Cc2c(O)c(C(=O)NCC(=O)O)c(=O)n(Cc3ccc(C(F)(F)F)cc3)c2C1` [Example 16, N-({6-(ethoxycarbonyl)-4-hydroxy-2-oxo-1-[4-(trifluoromethyl)benzyl]-2,5,6,7-tetrahydro-1H-pyrrolo[3,4-b]pyridin-3-yl}carbonyl)glycine], for which the IC50 was less than 10 nM.

Take `O=C(O)CNC(=O)c1c(O)c2c(n(Cc3ccc(C(F)(F)F)cc3)c1=O)CN(C(=O)N1CCCC1)C2` [Example 17, N-({4-hydroxy-2-oxo-6-(pyrrolidin-1-ylcarbonyl)-1-[4-(trifluoromethyl)benzyl]-2,5,6,7-tetrahydro-1H-pyrrolo[3,4-b]pyridin-3-yl}carbonyl)glycine]: the IC50 was less than 10 nM.

In the case of `O=C(O)CNC(=O)c1c(O)c2c(n(Cc3ccc(C(F)(F)F)cc3)c1=O)CN(C(=O)c1ccccc1Cl)C2` [Example 18, N-({6-(2-chlorobenzoyl)-4-hydroxy-2-oxo-1-[4-(trifluoromethyl)benzyl]-2,5,6,7-tetrahydro-1H-pyrrolo[3,4-b]pyridin-3-yl}carbonyl)glycine], the half-maximal inhibitory concentration (IC50) is less than 10 nM.

With `O=C(O)CNC(=O)c1c(O)c2c(n(Cc3ccc(C(F)(F)F)cc3)c1=O)CN(S(=O)(=O)c1ccccc1)C2` [Example 19, N-({4-hydroxy-2-oxo-6-(phenyl-sulfonyl)-1-[4-(trifluoromethyl)benzyl]-2,5,6,7-tetrahydro-1H-pyrrolo[3,4-b]pyridin-3-yl}carbonyl)glycine], the concentration for half-maximal inhibition (IC50) was less than 10 nM.

On to `O=C(O)CNC(=O)c1c(O)c2c(n(Cc3ccc(C(F)(F)F)cc3)c1=O)CN(C(=O)C1CCCC1)C2` [Example 20, N-({6-(cyclopentylcarbonyl)-4-hydroxy-2-oxo-1-[4-(trifluoromethyl)benzyl]-2,5,6,7-tetrahydro-1H-pyrrolo[3,4-b]pyridin-3-yl}carbonyl)glycine], for which the IC50 was less than 10 nM.

Turning to `O=C(O)CNC(=O)c1c(O)c2c(n(Cc3ccc(C(F)(F)F)cc3)c1=O)CN(C(=O)c1ccc(Cl)cc1)C2` [Example 21, N-({6-(4-chlorobenzoyl)-4-hydroxy-2-oxo-1-[4-(trifluoromethyl)benzyl]-2,5,6,7-tetrahydro-1H-pyrrolo[3,4-b]pyridin-3-yl}carbonyl)glycine], the IC50 was less than 10 nM.

Take `CCOC(=O)N1Cc2c(O)c(C(=O)NCC(=O)O)c(=O)n(Cc3ccc(-c4ccccc4)cc3)c2C1` [Example 22, N-{[1-(biphenyl-4-ylmethyl)-6-(ethoxycarbonyl)-4-hydroxy-2-oxo-2,5,6,7-tetrahydro-1H-pyrrolo[3,4-b]pyridin-3-yl]carbonyl}glycine]: the half-inhibitory concentration (IC50) was less than 10 nM.

Take `Cc1cc(C(=O)N2Cc3c(O)c(C(=O)NCC(=O)O)c(=O)n(Cc4ccc(C(F)(F)F)cc4)c3C2)n(C)n1` [Example 23, N-({6-[(1,3-dimethyl-1H-pyrazol-5-yl)carbonyl]-4-hydroxy-2-oxo-1-[4-(trifluoromethyl)benzyl]-2,5,6,7-tetrahydro-1H-pyrrolo[3,4-b]pyridin-3-yl}carbonyl)glycine]: the IC50 was less than 10 nM.

As for `O=C(O)CNC(=O)c1c(O)c2c(n(Cc3ccc(C(F)(F)F)cc3)c1=O)CN(C(=O)c1cc3ncccn3n1)C2` [Example 24, N-({4-hydroxy-2-oxo-6-(pyrazolo[1,5-a]pyrimidin-2-ylcarbonyl)-1-[4-(trifluoromethyl)benzyl]-2,5,6,7-tetrahydro-1H-pyrrolo[3,4-b]pyridin-3-yl}carbonyl)glycine], the 50% inhibitory concentration (IC50) was less than 10 nM.

Staying with this experiment, now noted: PHD2 Activity (PHD2 binding activity expressed as IC50), FLAG-tagged full length PHD2; 0.2 μM 2-oxoglutarate, 0.5 μM HIF-1α peptide.
`O=C(O)CNC(=O)c1c(O)c2c(n(Cc3ccc(C(F)(F)F)cc3)c1=O)CN(C(=O)C1CC1)C2` [Example 13, N-({6-(cyclopropylcarbonyl)-4-hydroxy-2-oxo-1-[4-(trifluoromethyl)benzyl]-2,5,6,7-tetrahydro-1H-pyrrolo[3,4-b]pyridin-3-yl}carbonyl)glycine]: the IC50 is less than 10 nM.
